The values below are quoted from earlier work in patent US20120128730A1, “COMPOSITIONS AND METHODS FOR ONCE-DAILY TREATMENT OF OBSESSIVE COMPULSIVE DISORDER WITH ONDANSETRON” (priority 2010, published 2012).

The structures appear in SMILES notation.

This series concerns mesenteric bed or the nerves in the heart. The following applies: animal studies.

For `Cc1nccn1CC1CCc2c(c3ccccc3n2C)C1=O` (stereo not shown) [ondansetron], the “effect on the mesenteric bed or the nerves in the heart” value was “did not appear to have effect”.
